Experimental data: ChEMBL document CHEMBL1201862, “PubChem BioAssay data set” (2004)
Calls of active or inactive are those of the source.

Legend:
[1] = target: T1, Adenosylmethionine-8-amino-7-oxononanoate aminotransferase (Mycobacterium tuberculosis, UniProt P9WQ81); experiment: Mycobacterium tuberculosis BioA enzyme inhibitor Measured in Biochemical System Using Plate Reader - 2163-02_Inhibitor_Dose_CherryPick_Activity.; format: functional, Mycobacterium tuberculosis UT205
T1 sequence (P9WQ81 whole entry): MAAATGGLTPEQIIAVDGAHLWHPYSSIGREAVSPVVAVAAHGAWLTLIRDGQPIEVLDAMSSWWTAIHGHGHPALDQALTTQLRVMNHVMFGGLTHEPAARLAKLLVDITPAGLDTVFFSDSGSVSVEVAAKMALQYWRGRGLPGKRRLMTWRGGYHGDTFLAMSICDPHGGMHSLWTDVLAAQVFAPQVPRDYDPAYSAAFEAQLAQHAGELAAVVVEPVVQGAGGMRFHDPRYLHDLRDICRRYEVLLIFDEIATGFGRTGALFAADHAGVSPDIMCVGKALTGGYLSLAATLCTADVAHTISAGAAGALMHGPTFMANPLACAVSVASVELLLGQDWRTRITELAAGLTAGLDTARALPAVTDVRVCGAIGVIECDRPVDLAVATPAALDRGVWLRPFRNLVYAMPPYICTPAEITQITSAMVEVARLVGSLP

[2] = NIH3T3 cell viability loss – ATP luminescence, mouse fibroblasts, counter-screen, dose response (AID 2010); format: functional, cell-based;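 also: cells exposed to compound for about 90 hours before reading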
[3] = Trypanosoma cruzi growth suppression in host cells – NIH3T3 host cells, beta-gal luminescence, confirmation (AID 2044); format: functional, cell-based;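 also: intracellular parasites grown in NIH/3T3 mouse fibroblasts as host cells; luminescent beta-galactosidase reporter signal from transgenic T. cruzi replicating inside host cells; inhibitors lower the luminescence signal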
[4] = target: T2, Small ubiquitin-related modifier 1 (Homo sapiens, UniProt P63165); experiment: SUMO1 protein-protein binding blockers, potency – biochemical, FRET, dose response (AID 624383); format: functional; settings: read-out: IC50_Mean
T2 sequence (P63165 whole entry): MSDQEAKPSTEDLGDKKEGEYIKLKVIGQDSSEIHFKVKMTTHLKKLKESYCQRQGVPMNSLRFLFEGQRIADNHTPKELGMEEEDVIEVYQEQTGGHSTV

[5] = target: T2, Small ubiquitin-related modifier 1; experiment: SUMO1 protein interaction blockers, potency – biochemical, fluorescence polarization, uHTS hits, dose response (AID 624382); format: functional; settings: read-out: IC50_Mean
[6] = target: Ras and Rab interactor 1/Tyrosine-protein kinase ABL1 (Homo sapiens, UniProt P00519+Q13671); format: functional;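 also: biochemical TR-FRET dose-response test measuring inhibition of binding between Rin1 and Abl proteins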
Ras and Rab interactor 1/Tyrosine-protein kinase ABL1, sequence (P00519 whole entry, the tested form may be a part): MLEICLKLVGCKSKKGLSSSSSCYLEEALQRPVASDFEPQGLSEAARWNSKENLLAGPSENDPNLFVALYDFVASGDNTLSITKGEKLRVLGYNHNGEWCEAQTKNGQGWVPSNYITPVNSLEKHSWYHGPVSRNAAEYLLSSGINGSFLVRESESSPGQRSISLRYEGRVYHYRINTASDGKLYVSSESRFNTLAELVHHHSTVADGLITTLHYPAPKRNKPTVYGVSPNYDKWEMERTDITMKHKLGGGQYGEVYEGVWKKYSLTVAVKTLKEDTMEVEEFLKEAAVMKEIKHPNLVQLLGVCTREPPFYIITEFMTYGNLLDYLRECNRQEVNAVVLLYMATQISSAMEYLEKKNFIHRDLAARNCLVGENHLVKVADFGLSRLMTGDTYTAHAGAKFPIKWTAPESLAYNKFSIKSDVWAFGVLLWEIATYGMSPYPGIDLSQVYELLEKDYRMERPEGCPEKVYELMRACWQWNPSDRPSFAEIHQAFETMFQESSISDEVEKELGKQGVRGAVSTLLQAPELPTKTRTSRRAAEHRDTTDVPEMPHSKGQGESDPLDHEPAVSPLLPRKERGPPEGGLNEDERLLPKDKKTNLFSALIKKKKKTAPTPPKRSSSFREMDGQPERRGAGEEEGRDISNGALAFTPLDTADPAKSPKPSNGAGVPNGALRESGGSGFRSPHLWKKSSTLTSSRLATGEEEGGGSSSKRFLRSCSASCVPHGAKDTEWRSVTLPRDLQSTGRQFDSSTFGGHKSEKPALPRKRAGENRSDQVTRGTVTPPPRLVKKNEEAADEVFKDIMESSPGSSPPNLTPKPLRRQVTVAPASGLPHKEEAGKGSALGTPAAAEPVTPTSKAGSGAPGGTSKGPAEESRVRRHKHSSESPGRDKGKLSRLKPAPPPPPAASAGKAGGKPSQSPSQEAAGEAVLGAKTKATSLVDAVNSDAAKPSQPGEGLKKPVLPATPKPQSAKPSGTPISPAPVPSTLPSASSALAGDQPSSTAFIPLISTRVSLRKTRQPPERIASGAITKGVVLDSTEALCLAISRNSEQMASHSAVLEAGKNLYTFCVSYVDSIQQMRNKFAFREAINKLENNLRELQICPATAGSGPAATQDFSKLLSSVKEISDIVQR
Ras and Rab interactor 1/Tyrosine-protein kinase ABL1, sequence (Q13671 whole entry, the tested form may be a part): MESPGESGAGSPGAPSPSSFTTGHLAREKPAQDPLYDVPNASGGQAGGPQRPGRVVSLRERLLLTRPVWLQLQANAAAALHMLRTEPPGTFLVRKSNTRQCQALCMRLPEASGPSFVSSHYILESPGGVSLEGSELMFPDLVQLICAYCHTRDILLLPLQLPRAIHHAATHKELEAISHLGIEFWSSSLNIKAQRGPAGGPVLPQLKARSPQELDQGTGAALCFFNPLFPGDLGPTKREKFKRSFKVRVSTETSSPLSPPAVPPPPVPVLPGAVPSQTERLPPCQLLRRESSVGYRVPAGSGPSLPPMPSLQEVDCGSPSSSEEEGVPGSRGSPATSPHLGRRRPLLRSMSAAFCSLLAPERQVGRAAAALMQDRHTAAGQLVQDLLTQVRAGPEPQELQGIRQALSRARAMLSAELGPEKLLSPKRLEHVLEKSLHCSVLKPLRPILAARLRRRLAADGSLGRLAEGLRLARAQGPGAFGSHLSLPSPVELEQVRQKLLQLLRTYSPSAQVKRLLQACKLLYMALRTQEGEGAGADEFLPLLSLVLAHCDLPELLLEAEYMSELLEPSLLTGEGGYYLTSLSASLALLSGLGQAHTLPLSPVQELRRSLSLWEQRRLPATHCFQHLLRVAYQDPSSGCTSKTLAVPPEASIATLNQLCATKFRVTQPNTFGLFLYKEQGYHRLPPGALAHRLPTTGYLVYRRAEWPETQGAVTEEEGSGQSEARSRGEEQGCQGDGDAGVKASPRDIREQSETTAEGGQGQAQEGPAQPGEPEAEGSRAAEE

[7] = target: T3, RNA-binding protein pos-1 (Caenorhabditis elegans, UniProt G5EF15); experiment: disruptors of C. elegans POS-1 RNA interaction – biochemical, fluorescence polarization, dose response (AID 1964);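 also: purified POS-1 fused to maltose binding protein made in E. coli; potency of compounds blocking POS-1 binding to fluorescent RNA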
T3 sequence (G5EF15 whole entry): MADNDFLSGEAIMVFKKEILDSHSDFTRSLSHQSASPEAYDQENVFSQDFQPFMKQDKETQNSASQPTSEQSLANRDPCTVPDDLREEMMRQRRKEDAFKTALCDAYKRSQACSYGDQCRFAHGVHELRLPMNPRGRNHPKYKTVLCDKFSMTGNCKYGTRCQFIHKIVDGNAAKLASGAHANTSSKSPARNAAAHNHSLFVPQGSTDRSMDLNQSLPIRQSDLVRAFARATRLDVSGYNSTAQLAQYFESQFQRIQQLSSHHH

[8] = target: T4, Zinc finger protein mex-5 (Caenorhabditis elegans, UniProt Q9XUB2); experiment: potency of MEX-5 RNA-binding blockers – biochemical, C. elegans, fluorescence polarization, dose response (AID 1960)
T4 sequence (Q9XUB2 whole entry): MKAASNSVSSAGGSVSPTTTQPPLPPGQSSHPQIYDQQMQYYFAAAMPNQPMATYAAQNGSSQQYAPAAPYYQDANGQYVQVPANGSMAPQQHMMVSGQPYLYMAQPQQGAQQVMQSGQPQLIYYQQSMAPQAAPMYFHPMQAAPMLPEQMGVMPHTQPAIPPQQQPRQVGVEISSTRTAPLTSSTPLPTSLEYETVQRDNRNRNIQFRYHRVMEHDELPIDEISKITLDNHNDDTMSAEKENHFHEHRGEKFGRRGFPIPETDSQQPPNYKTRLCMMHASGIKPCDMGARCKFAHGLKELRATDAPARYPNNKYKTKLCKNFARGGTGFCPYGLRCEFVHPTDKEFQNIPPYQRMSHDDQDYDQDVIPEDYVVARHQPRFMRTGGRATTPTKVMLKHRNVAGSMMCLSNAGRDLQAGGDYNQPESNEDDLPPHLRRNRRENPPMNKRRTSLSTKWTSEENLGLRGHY

[9] = target: T5, Long-chain-fatty-acid--AMP ligase FadD28 (Mycobacterium tuberculosis, UniProt P9WQ59); experiment: Fluorescence polarization aasay to screen for inhibitors that compete for the binding of FadD28 to a bisubstrate Measured in Biochemical System Using Plate Reader - 2147-01_Inhibitor_Dose_CherryPick_Activity.; format: functional, Mycobacterium tuberculosis H37Rv
T5 sequence (P9WQ59 whole entry): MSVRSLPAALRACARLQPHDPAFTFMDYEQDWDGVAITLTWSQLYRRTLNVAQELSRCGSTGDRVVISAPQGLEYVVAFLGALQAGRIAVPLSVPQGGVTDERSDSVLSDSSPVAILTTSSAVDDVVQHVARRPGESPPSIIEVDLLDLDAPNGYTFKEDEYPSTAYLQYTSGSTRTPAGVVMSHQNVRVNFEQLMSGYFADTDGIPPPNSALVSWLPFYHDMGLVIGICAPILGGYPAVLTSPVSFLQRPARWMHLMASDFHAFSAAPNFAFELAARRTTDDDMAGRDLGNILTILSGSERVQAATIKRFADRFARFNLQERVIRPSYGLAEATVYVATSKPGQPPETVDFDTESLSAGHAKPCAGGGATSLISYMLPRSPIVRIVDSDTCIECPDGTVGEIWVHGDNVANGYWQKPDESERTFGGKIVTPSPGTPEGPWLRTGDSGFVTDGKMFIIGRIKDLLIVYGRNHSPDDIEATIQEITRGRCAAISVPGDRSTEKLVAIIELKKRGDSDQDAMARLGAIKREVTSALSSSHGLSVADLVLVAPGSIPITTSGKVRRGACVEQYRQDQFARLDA

[10] = Vero E6 cell cytotoxicity, dose response, cytotoxicity control for non-replicating M. tuberculosis project, secondary assay (AID 492998); format: functional, VeroE6; settings: Vero C1008
[11] = HepG2 cell cytotoxicity, dose response, cytotoxicity control for non-replicating M. tuberculosis project (AID 489018); format: functional; settings: Mycobacterium tuberculosis
[12] = viability loss in HeLa cells – cytotoxicity control for MgcRacGAP inhibitor project, dose response (AID 624300); format: functional
[13] = THP-1 cell cytotoxicity, dose response, cytotoxicity control for non-replicating M. tuberculosis project (AID 489025); format: functional

With O=C(c1cccc(F)c1)N1CC[C@@H]2[C@H](CO)Nc3ccc(-c4cccc(F)c4)cc3[C@@H]21 the AC50 [1] was 0.185 µM (active).

In the case of O=C(Nc1cccc(NC(=O)c2ccc(-c3ccc(Br)cc3)o2)c1)c1ccco1, the EC50 [2] is reported as > 30 µM (not active), the EC50 [3] is reported as 2.73 µM (active) and the IC50 [4] is reported as 6.92 µM (active). For the same molecule, the IC50 [5] was > 66.6 µM (inactive).

In the case of CCOC(=O)c1ccc(NC(=O)NC2CC3CCC(C2)N3)cc1 (stereo not given), the IC50 [6] is reported as 31.7 µM (inactive).

With Cc1cccc(NC(=O)CN2C(=O)N/C(=C\c3cccn3-c3cccc(C(=O)O)c3)C2=O)c1 the EC50 [7] was > 300 µM (not active), the EC50 [8] was > 300 µM (not active) and the AC50 [9] was > 100 µM (inactive).

With COc1cc(CNCCNC(=O)c2nonc2N)ccc1OCc1ccc(Cl)cc1 the CC50 [10] was > 20 µM (active), the CC50 [11] was > 20 µM (active) and the CC50 [12] was 75.4 µM (active). The CC50 [13] was 24.3 µM (active).

With C[C@@H]1CN([C@H](C)CO)C(=O)Cc2cc(NC(=O)Cn3cnnn3)ccc2O[C@H]1CN(C)Cc1ccc2c(c1)OCO2 the AC50 [1] was 7.3 µM (active).

In the case of O=C(Nc1ccn([C@H]2CC[C@@H](CO)O2)c(=O)n1)c1ccccc1, the IC50 [6] is reported as 66.6 µM (inactive).
